Measured values from patent US5780472A, “Piperazine derivatives and methods for the preparation thereof and compositions containing the same” (Samjin Pharmaceuticazl Co., Ltd., priority 1995, dated 1998).
Values after ≈ are worked out from the molar mass of the structure shown.

How the values were obtained:
[1] = test system: ICR mice; test: Acute toxicity test (LD50), Litchfield-Wilcoxon method; assay type: in vivo, mouse; set-up: unit not given here; settings: male ICR mice, 14 days
[2] = test system: L1210 and P388 mouse cancer cells; test: In vitro antitumor activity against L1210 and P388 compared with mitomycin C (dye exclusion assay); assay type: cell-based; settings: in words
Description: (§1) B. Method of Experiment(Dye Exclusion Assay)
1) L-1210 and P388 cells that were cultured in RPMI 1640 media containing 10% FBS were regulated as the cell concentration of 1×10^6 cells/ml.
(§2) 2) Sample drugs diluted with log dose were added into the cells, and it were cultured at 37° C., for 48 hours, in […] incubater, and then viable cell number was measured, Viable cell number was measured with dye exclusion test using trypan blue.
3) The concentration of sample compounds of 50% cell growth inhibition compared with standard group was determined as IC50.

[3] = test system: P388 (mouse lymphoid neoplasma cell); test: In vitro antitumor effects against animal leukemia cells (dye exclusion assay), P388; assay type: cell-based; settings: Mus musculus, P388, 48 h, 50% cell growth inhibition, 37° C., trypan blue, read-out: ED50 (the source's name)
Description: P388 (mouse lymphoid neoplasma cell)
as §1, §2

[4] = test system: mouse leukemia P388 cells; test: In vivo antitumor effects against mouse leukemia P388 cells; settings: for T/C (%) etc.: days 1, 5, 9, median survival time; for antitumor effect in P388 mice: in words
Description: 1) Leukemia P388 cells being transfer-cultured succesively in DBA/2 mouse, were grafted i.p. into each mouse of a group comprising 8 mice of 6 week old BDFI mouse as the dose of 1×10^6 cells/0.1 ml.
2) Sample drugs were dissolved in PBS or suspended in 0.5% Tween 80, and then injected into abdominal cavity of mouse at each prescribed concentration on days 1, 5, 9, respectively.
3) With observation every day, survival times of tested mice were measured. Antitumor activities was determined in such a manner that the increasing ratio(T/C %) of average survival days of drug-treated groups compared with the control group was calculated using the mean survival times of each tested groups.
* Experimental Conditions for Mouse P388
(§3) Animal: BDFI mouse (8 mice/group)
Inoculum size: 10^6 cells/mouse
(§4) Treatment time: days 1, 5, 9
(§5) Parameter: median survival time

[5] = test system: L1210 (mouse leukemia cell); test: In vitro antitumor effects against animal leukemia cells (dye exclusion assay), L1210; assay type: cell-based; settings: Mus musculus, L1210, 48 h, 50% cell growth inhibition, 37° C., trypan blue, read-out: ED50 (the source's name)
Description: L1210(mouse leukemia cell)
as §1, §2

[6] = test system: 5 kinds of human solid cancer cell lines; test: In vitro antitumor activity against 5 human solid cancer cell lines compared with cisplatin (SRB assay); assay type: cell-based; settings: in words
Description: Antitumor activities of the compounds of present invention were tested. Antitumor activities of compounds of the present invention were tested in vitro against 5 kinds of human tumor cell lines and 2 kinds of leukemia tumor cell lines. The method of in vitro test is as follows.
B. Method of test(SRB Assay Method)
a. Human solid tumor cell lines, […](non-small lung cell), SKMEL-2(melanoma), HCT-15(colon), SKOV-3(ovarian), XF-498(CNS) were cultured at 37° C., in 5% CO2 incubater using the RPMI 1640 media containing 10% FBS, while they were transfer-cultured successively once or twice per week. Cell cultures were dissolved into the solution of 0.25% trypsin and 3 mM CDTA PBS(-) and then cells were separated from media which the cells were sticked on.
b. 5×10^3 -2×10^4 cells were added into each well of 96-well plate and cultured in 5% CO2 incubater, at 37° C., for 24 hours.
c. Each sample drugs was dissolved in a small quantity of DMSO, and diluted to concentrations prescribed in experiment with media, and then the final concentration of DMSO was controlled below 0.5%.
d. A medium of each well cultured for 24 hours as above b., was removed by aspiration. 200 μl of drug samples prepared in c. was added into each well and the wells were cultured for 48 hours. Tz(time zero) plates were collected at the point of time drugs were added.
e. After Tz plates and plates were treated with cell fixing by TCA of SRB assay method, staining of 0.4% SRB solution, washing with 1% acetic acid, OD values were measured at 520 nm, following elution of dye with 10 mM Tris solution.
e. If T≥Tz, cellular response function was calculated with 100×(T-Tz)/(C-Tz), and if T<Tz, with 100×(T-Tz)/Tz.

[7] = test system: B16 Melanoma; test: In vivo antitumor activities against mouse solid tumor, B16 melanoma; settings: for T/C (%) Etc.: days 1, 5, 9, median survival time; for antitumor activities in B16 mouse melanoma: in words
Description: BDF1 mouse was used in experiment while being successively transfer cultured in C57BL/6 mice by s.c.
1) After 1 g of tumor was added into cold balanced salt solution up to be 10 ml, it was homogenized (10:1,brei).
2) 0.5 ml Brei of the above 1) were grafted into each BDFI mouse by i.p.
3) Median survival time was measured, and the activity was determined in such a manner that if T/C was over 125%, it presented moderate activity, while if it is over 150%, it had significant activity.
* Experimental Conditions for Mouse B16 Melanoma.
as §3
Inoculum size: 10^5 cells/mouse
as §4, §5

| Compound | LD50 ([1]; i.p.) | LD50 ([1]; p.o.) | antitumor activities compared with mitomycin C [2] | IC50 [3] [µg/mL] | T/C (%) etc. ([4]; 50 mg/kg i.p.) [%] | T/C (%) etc. ([4]; 100 mg/kg i.p.) [%] | antitumor effect in P388 mice [4] | IC50 [5] [µg/mL] | antitumor activities compared with cisplatin [6] | T/C (%) Etc. ([7]; Dose 50 (unit not given) i.p.) [%] | T/C (%) Etc. ([7]; Dose 100 (unit not given) i.p.) [%] | T/C (%) Etc. ([7]; Dose 200 (unit not given) i.p.) [%] | antitumor activities in B16 mouse melanoma [7] |
| --- | --- | --- | --- | --- | --- | --- | --- | --- | --- | --- | --- | --- | --- |
| CCc1cc(NC(=O)N2CCN(c3cc(OC)cc(OC)c3)CC2)c(OC)nc1C [Example 6, 1-[(5-ethyl-2-methoxy-6-methylpyridin-3-yl)aminocarbonyl]-4-(3,5-dimethoxyphenyl)piperazine] | 248.5 | > 622 | same or more excellent antitumor activities | 0.3 (≈ 0.724 µM) | 133.3 | 183.3 | significant antitumor effect | 0.6 (≈ 1.45 µM) | superior antitumor activities to those of cisplatin | 127.3 | 124.2 | 139.4 | significant antitumor activities |
| CCc1cc(NC(=O)N2CCN(c3cccc(Cl)c3)CC2)c(OC)nc1C [Example 16, 1-[(5-ethyl-2-methoxy-6-methylpyridin-3-yl)aminocarbonyl]-4-(3-chlorophenyl)piperazine] |  |  |  | 1.6 (≈ 4.11 µM) | 113.6 | 131.8 | significant antitumor effect | 1.8 (≈ 4.63 µM) |  | 115.2 | 127.3 | 118.2 | significant antitumor activities |
